Test results: patent publication US6025387A, “Gastroprotective flavone/flavanone compounds with therapeutic effect on inflammatory bowel disease” (Dong a Pharmaceutical Co., Ltd., priority 1996, dated 2000)
≈ marks a conversion by molar mass, not a printed value.

Columns and labels:
[1] = tested on: gastric mucosal damage induced by ethanolic HCl; assay: Gastritis model induced with ethanolic-HCl; type: in vivo, SD male rat; conditions: po, 1 h, rat; for inhibition in vivo at 0.3 mg/kg: 0.3 mg/kg p.o.; for inhibition in vivo at 1 mg/kg: 1 mg/kg p.o.; for inhibition in vivo at 3 mg/kg: 3 mg/kg p.o.
Description: Effect on the Gastritis Model Induced with Ethanolic-HCl.
SD male rat(250-350 g) was fasted for 24 hours. The compound was orally administered in suspension of 5% HPMC, and after 1 hour 1.5 mL of 150 mM HCl-80% ethanol was orally administered. After 1 hour the rat was sacrifieced and the stomach was extracted and the ulcer index was measured. The ulcer index was shown by the area of hemorrhage lesion(Mizui, T, et al., Jpn. J. Pharmacol. 1983, 33: 939).

[2] = tested on: neutrophils; assay: Luminol-dependent chemiluminescence of neutrophils induced by FMLP; type: cell-based; conditions: 1 μM FMLP, 0.07 mM luminol; for IC50: Neutrophil, read-out: IC50, inhibition of chemiluminescence generated by neutrophil activation
Description: Measurement of luminol-dependent chemiluminescencei iof neutrophil induced by FMLP.
20 mL of 12% sodium caseinate-0.9% saline was administered intraperitoneally (Newsby, A. C., Biochem. J., 1980, 186: 907,. After 20 hours, the intraperitoneal exudate was extracted under ether anesthesia. The exudate was centrifuged, and erythrocytes were removed by hypotonic lysis, and then neutrophil was washed. Neutrophil was ascertained by Wright's dyeing method, and viability was measured by Trypan blue exclusion test. Chemiluminescence was measured by Topcount (Packard Co.). The suspension of 1.5×10^6 of granulocytes, 1 μM of FMLP, 0.07 mM of luminol and the compound in HBSS was used (Dahlgren, C., et al., Infect. Immun., 1985 47: 326-328).
**IC50 (μg/mL): Concentration of the compound at inhibiting
chemiluminescence generated by neutrophil activation to 50%

[3] = tested on: gastric mucus secretion; assay: Measurement of gastric mucus; type: in vivo, SD male rat; conditions: oral, rat
Description: Measurement of Gastric Mucus
The compound was orally administered into SD male rat (200~250 g). After 1 hour the stomach was extracted. The extracted stomach was immediately washed with 10 mL of cold 0.25M sucrose solution. The gastric mucosa was dyed with 0.1% alcian blue solution for 2 hours. After dyeing, the gastric mucosa was washed with 0.25M sucrose solution twice for 15 minutes and for 45 minutes. The dyed gastric mucosa was treated with 10 mL of 30% dioctyl sodium sulfosuccinate solution for 2 hours to extract dyed mucus completely and optical density of aqueous phase was measured spectrophotometrically at 655 nm. The amount of mucus in the gastric mucosa was shown as the amount of alcian blue after calibration (Kitagawa, H., et al., Drug Res. 1986, 36: 1240-1244).

[4] = tested on: chronic gastritis induced with acetic acid; assay: Model of chronic gastritis induced with acetic acid; type: in vivo, SD male rat; conditions: once a day for 21 days, rat
Description: Experiment on the Model of Chronic Gastritis Induced with Acetic Acid
From the next day of the surgical operation, the compound was orally administered once a day for 21 days. After 21 days, the stomach was extracted under ether anesthesis, dipped in 1% formalin solution and the area of gastric lesion was measured. […] An pathological tissue autopsy was carried out for the prepared specimen.

[5] = tested on: ulcer; conditions: in vivo; cited from earlier work
[6] = tested on: TNBS-induced colitis; assay: TNBS-induced colitis model, oral administration; type: in vivo, male SD rats; conditions: for lesion scores: once a day for 13 days, rat; for adhesion degree / dilation and extention degree: score 0-3, rat
Description: Experiment on the Model of Inflammatory Bowl Diseases Induced with TNBS
7 week-aged male SD rats were fasted for a day, and the rats were put under anesthesia and canula (diameter 3 mm) was inserted into the anus to the depth of 8 cm. 25 mg/mL of TNBS (Trinitrobenzene sulfonic acid) dissolved in 50% ethanol solution was injected to each rat and the rats were positioned at feature of tail up for 1 minute. The solution flowing out was removed and the rats were once washed with 1.5 mL of saline solution. After colitis was induced, the compound was administered orally or intracolonically once a day for 13 days. For control, mesalazine (5-amino salicylic acid) was used for oral administration and prednisolone was used for rectal administration. At 14th day of experiment, each group of the rats were put under ether anesthesis, the colon was extracted and the degree of adhesion and extension of the large intestine were measured and their lesion scores were recorded. After 1% formalin solution was injected to the cavity of the extracted colon to inflate, the both ends of it were bonded with each other and it was all-fixed in 1% formalin solution for 2 hours. The all-fixed colon was cut to lengthy direction and washed to remove surrounding fat tissues and connective fissaes. After cecum was removed, the weight of the colon and the rectum was measured, and the area of ulcer lesion, and microscopic lesion were measured to mark scores according to the criterion. And they were fixed in 10% neutral formalin solution, and the tissue examination of lesion site was performed by general method to mark scores according to the criterion.
Clinical symptoms: Daily, we observed clinical symptoms and survival of the animals. And we measured the weight of the animals at the beginning day, third and eighth day of the experiment.
(0: non-adhesion, 1: adhesion exists but easily taken off by gloved hand, 2: more severe adhesion than 1 exists but easily taken off by scissors, 3: very severe adhesion exists, so it is difficult to be taken off by scissors because of possibility of its perforation.)
Degree of thickening and extension of the large intestine: We marked scores of the degree of thickness and extension of the large intestine according to the criterion, following the method of Kim et al., and compared with the average value of each group.
(0: lesion site non-existing, 1: a few degree of lesion, 2: intermediate degree of lesion, 3: severe degree of lesion)
We scored the lesion examined with the naked eye and compared the average value of each group. The standards of lesion scores as criterion of the damage of the colon by Wallace's method is as followings.
(0: normal, non-damaged, 1: congestion without ulcer 2: congestion and thickening of intestinal wall without ulcer, 3: an ulcer lesion without thickening of intestinal wall, 4: more than two ulcerous/inflammatory lesion, 5: more than two ulcerous/inflammatory lesion or the length of ulcerous/inflammatory lesion is more than 1 cm, 6-10: when the length of lesion is over 2 cm, one point increases everytime 1 cm of the length of ulcerous/inflammatory increases, for example, when the ulcer length is 3 cm, the point is 7.)
Microscopic evaluation: We trimmed the colon giving 3 cm interval from the rectum to the cecum, including the site of lesion examined with the naked eye, to make at least 4 specimens per an individual. […] When the lesion can not be examined with the naked eye, we trimmed the other specimen which has the lesion, with 3 cm interval.

SMILES: COc1ccc(-c2cc(=O)c3c(O)c(OC)ccc3o2)cc1OC [5-hydroxy-3',4',6-trimethoxy flavone]
- inhibition in vivo at 0.3 mg/kg [1]: 38%
- inhibition in vivo at 1 mg/kg [1]: 42%
- inhibition in vivo at 3 mg/kg [1]: 64%

SMILES: CNC(=O)COc1cc(OC)c2c(=O)cc(-c3ccc(OC)c(OC)c3)oc2c1 [7-(N-methylamidomethyloxy)-3',4',5-trimethoxy flavone]
- inhibition in vivo at 0.3 mg/kg [1]: 43%
- inhibition in vivo at 1 mg/kg [1]: 47%
- inhibition in vivo at 3 mg/kg [1]: 45%

SMILES: COc1ccc(-c2cc(=O)c3cc(OC)c(OCC(=O)O)cc3o2)cc1OC [7-carboxymethyloxy-3',4',6-trimethoxy flavone]
- inhibition in vivo at 0.3 mg/kg [1]: 30%
- inhibition in vivo at 1 mg/kg [1]: 31%
- inhibition in vivo at 3 mg/kg [1]: 39%

SMILES: COc1ccc(C2CC(=O)c3c(cc(OCC(=O)O)c(OC)c3O)O2)cc1OC (stereo not drawn) [7-carboxymethyloxy-5-hydroxy-3',4',6-trimethoxy flavanone]
- inhibition in vivo at 0.3 mg/kg [1]: 0%
- inhibition in vivo at 1 mg/kg [1]: 18%
- inhibition in vivo at 3 mg/kg [1]: 50%
- IC50 [2]: 1.79 µg/mL (≈ 4.43 µM)

SMILES: COc1ccc(C2CC(=O)c3c(OC)cc(O)cc3O2)cc1OC (stereo not drawn) [7-hydroxy-3',4'5-trimethoxy flavanone, 7-hydroxy-3',4',5-trimethoxy flavanone]
- inhibition in vivo at 0.3 mg/kg [1]: 30%
- inhibition in vivo at 1 mg/kg [1]: 57%
- inhibition in vivo at 3 mg/kg [1]: 76%

SMILES: COc1ccc(-c2cc(=O)c3c(OC)c(OC)c(OCCO)cc3o2)cc1OC [7-hydroxyethyloxy-3',4',5,6-tetramethoxy flavone]
- inhibition in vivo at 0.3 mg/kg [1]: 43%
- inhibition in vivo at 1 mg/kg [1]: 50%
- inhibition in vivo at 3 mg/kg [1]: 51%
- IC50 [2]: 0.13 µg/mL (≈ 0.323 µM)

SMILES: COc1ccc(-c2cc(=O)c3c(OC)cc(OCCO)cc3o2)cc1OC [7-hydroxyethyloxy-3',4',5-trimethoxy flavone]
- inhibition in vivo at 0.3 mg/kg [1]: 0%
- inhibition in vivo at 1 mg/kg [1]: 34%
- inhibition in vivo at 3 mg/kg [1]: 47%

SMILES: COC(=O)COc1cc(OC)c2c(=O)cc(-c3ccc(OC)c(OC)c3)oc2c1 [7-methoxycarbomethyloxy-3',4',5-trimethoxy flavone]
- IC50 [2]: 0.95 µg/mL (≈ 2.37 µM)

SMILES: O=C(NC(Cc1cc(=O)[nH]c2ccccc12)C(=O)O)c1ccc(Cl)cc1 (stereo not drawn) [Rebamipide, 2(4-chlorobenzoylamino)-3-(2-(LH)-quinolinone-4-yl)propanonic acid, reference compound]
- gastric mucus secretion, % Control ([3]; 10 mg/kg): 128 % Control
- gastric mucus secretion, % Control ([3]; 100 mg/kg): 136 % Control
- inhibiting% (gastric lesion) ([4]; 10 mg/kg p.o.): 41%
- inhibiting% (gastric lesion) ([4]; 100 mg/kg p.o.): 7%
- inhibition in vivo at 3 mg/kg [1]: 22%
- inhibition in vivo at 10 mg/kg ([1]; 10 mg/kg p.o.): 30%
- inhibition in vivo at 30 mg/kg ([1]; 30 mg/kg p.o.): 47%
- IC50, inhibition of chemiluminescence generated by neutrophil activation [2]: 92 µg/mL
- IC50 [2]: 92.1 µg/mL (≈ 248 µM)

SMILES: COc1ccc(-c2cc(=O)c3c(O)cc(OC)cc3o2)cc1 [apigenin-7,4'-dimethylether]
- anti-ulcerative action [5]: anti-ulcerative action

SMILES: COc1ccc([C@@H]2CC(=O)c3c(O)cc(O[C@@H]4O[C@H](CO[C@@H]5O[C@@H](C)[C@H](O)[C@@H](O)[C@H]5O)[C@@H](O)[C@H](O)[C@H]4O)cc3O2)cc1O [hesperidine]
- anti-ulcerative action [5]: anti-ulcerative action

SMILES: O=c1cc(-c2ccc(O)c(O)c2)oc2c(O[C@@H]3O[C@H](CO)[C@@H](O)[C@H](O)[C@H]3O)c(O)cc(O)c12 [hypolaetin-8-glucoside]
- anti-ulcerative action [5]: anti-ulcerative action

SMILES: O=c1c(O)c(-c2ccc(O)cc2)oc2cc(O)cc(O)c12 [kampferol]
- anti-ulcerative action [5]: anti-ulcerative action

SMILES: Nc1ccc(O)c(C(=O)O)c1 [mesalazine, 5-amino salicylic acid, reference compound]
- lesion scores ([6]; 25 mg/kg p.o.): 2.8
- adhesion degree ([6]; 25 mg/kg p.o.): 1.4
- dilation and extention degree ([6]; 25 mg/kg p.o.): 0.9
- lesion scores ([6]; 50 mg/kg p.o.): 2.2
- adhesion degree ([6]; 50 mg/kg p.o.): 1.0
- dilation and extention degree ([6]; 50 mg/kg p.o.): 1.1

SMILES: O=C1C[C@@H](c2ccc(O)cc2)Oc2cc(O)cc(O)c21 [naringenin]
- anti-ulcerative action [5]: anti-ulcerative action

SMILES: O=c1c(O)c(-c2ccc(O)c(O)c2)oc2cc(O)cc(O)c12 [quercetin]
- anti-ulcerative action [5]: anti-ulcerative action
